In ChEMBL document CHEMBL4229379, “Synthesis and structure-activity relationship of novel bisindole amidines active against MDR Gram-positive and Gram-negative bacteria” (Eur J Med Chem, 2018):
In brackets after ≈: the same amount, converted by molar mass.

Experiments:
Klebsiella pneumoniae [1] = assay: Antibacterial activity against extended-spectrum beta-lactamase harboring Klebsiella pneumoniae 12-8 after 18 hrs by CLSI broth microdilution method; type: functional; conditions: 12-8, 18 h
Klebsiella pneumoniae [2] = assay: Antibacterial activity against extended-spectrum beta-lactamase deficient Klebsiella pneumoniae 7 after 18 hrs by CLSI broth microdilution method; type: functional; conditions: Klebsiella pneumoniae, 7, 18 h
Serratia marcescens = assay: Antibacterial activity against Serratia marcescens ATCC 21074 after 18 hrs by CLSI broth microdilution method; type: functional; conditions: ATCC 21074, 18 h
Escherichia coli [3] = assay: Antibacterial activity against extended-spectrum beta-lactamase deficient Escherichia coli 1515 after 18 hrs by CLSI broth microdilution method; type: functional; conditions: Escherichia coli, 1515, 18 h
Staphylococcus aureus [4] = assay: Antibacterial activity against methicillin-sensitive Staphylococcus aureus ATCC 29213 after 18 hrs by CLSI broth microdilution method; type: functional; conditions: ATCC 29213, 18 h
Enterococcus faecium [5] = assay: Antibacterial activity against vancomycin-resistant Enterococcus faecium ATCC 700221 after 18 hrs by CLSI broth microdilution method; type: functional; conditions: ATCC 700221, 18 h
Pseudomonas aeruginosa [6] = assay: Antibacterial activity against Pseudomonas aeruginosa PAO1 after 18 hrs by CLSI broth microdilution method; type: functional; conditions: PAO1, 18 h
Proteus mirabilis = assay: Antibacterial activity against Proteus mirabilis 12-6 after 18 hrs by CLSI broth microdilution method; type: functional; conditions: 12-6, 18 h
Enterobacter cloacae = assay: Antibacterial activity against Enterobacter cloacae ATCC 43560 after 18 hrs by CLSI broth microdilution method; type: functional; conditions: ATCC 43560, 18 h
[7] = tested on: Stenotrophomonas maltophilia; assay: Antibacterial activity against Stenotrophomonas maltophilia ATCC 13636 after 18 hrs by CLSI broth microdilution method; type: functional; conditions: ATCC 13636, 18 h
Enterococcus faecalis [8] = assay: Antibacterial activity against vancomycin-sensitive Enterococcus faecalis ATCC 29212 after 18 hrs by CLSI broth microdilution method; type: functional; conditions: ATCC 29212, 18 h
[9] = Cytotoxicity against HEK293T cells assessed as reduction in cell viability after 48 hrs by MTS assay; type: cell-based, HEK-293T; conditions: human
[10] = tested on: Staphylococcus epidermidis; assay: Antibacterial activity against methicillin-sensitive Staphylococcus epidermidis ATCC 12228 after 18 hrs by CLSI broth microdilution method; type: functional; conditions: ATCC 12228, 18 h
Staphylococcus aureus [11] = assay: Antibacterial activity against methicillin-sensitive Staphylococcus aureus 12-28 after 18 hrs by CLSI broth microdilution method; type: functional; conditions: 12-28, 18 h
[12] = tested on: Staphylococcus epidermidis; assay: Antibacterial activity against methicillin-resistant Staphylococcus epidermidis 12-8 after 18 hrs by CLSI broth microdilution method; type: functional; conditions: 12-8, 18 h
Klebsiella pneumoniae [13] = assay: Antibacterial activity against new delhi metallo-beta-lactamase-1 harboring Klebsiella pneumoniae ATCC BAA-2146 after 18 hrs by CLSI broth microdilution method; type: functional; conditions: ATCC BAA-2146, 18 h
Providencia rettgeri = assay: Antibacterial activity against Providencia rettgeri ATCC 31052 after 18 hrs by CLSI broth microdilution method; type: functional; conditions: ATCC 31052, 18 h
Pseudomonas aeruginosa [14] = assay: Antibacterial activity against Pseudomonas aeruginosa 12-16 after 18 hrs by CLSI broth microdilution method; type: functional; conditions: 12-16, 18 h
Escherichia coli [15] = assay: Antibacterial activity against extended-spectrum beta-lactamase deficient Escherichia coli ATCC 25922 after 18 hrs by CLSI broth microdilution method; type: functional; conditions: ATCC 25922, 18 h
[16] = tested on: Acinetobacter calcoaceticus; assay: Antibacterial activity against Acinetobacter calcoaceticus ATCC 19606 after 18 hrs by CLSI broth microdilution method; type: functional; conditions: ATCC 19606, 18 h
Escherichia coli [17] = assay: Antibacterial activity against extended-spectrum beta-lactamase harboring Escherichia coli 12-15 after 18 hrs by CLSI broth microdilution method; type: functional; conditions: 12-15, 18 h
Klebsiella aerogenes = assay: Antibacterial activity against Enterobacter aerogenes ATCC 13048 after 18 hrs by CLSI broth microdilution method; type: functional; conditions: ATCC 13048, 18 h
Proteus vulgaris = assay: Antibacterial activity against Proteus vulgaris ATCC 29905 after 18 hrs by CLSI broth microdilution method; type: functional; conditions: ATCC 29905, 18 h
Enterococcus faecalis [18] = assay: Antibacterial activity against vancomycin-resistant Enterococcus faecalis 09-9 after 18 hrs by CLSI broth microdilution method; type: functional; conditions: 09-9, 18 h
Staphylococcus aureus [19] = assay: Antibacterial activity against methicillin-sensitive Staphylococcus aureus 15 after 18 hrs by CLSI broth microdilution method; type: functional; conditions: Staphylococcus aureus, 15, 18 h
Enterococcus faecalis [20] = assay: Antibacterial activity against vancomycin-sensitive Enterococcus faecalis 12-5 after 18 hrs by CLSI broth microdilution method; type: functional; conditions: 12-5, 18 h
Klebsiella pneumoniae [21] = assay: Antibacterial activity against extended-spectrum beta-lactamase deficient Klebsiella pneumoniae 12-4 after 18 hrs by CLSI broth microdilution method; type: functional; conditions: 12-4, 18 h
Enterococcus faecalis [22] = assay: Antibacterial activity against vancomycin-resistant Enterococcus faecalis ATCC 51299 after 18 hrs by CLSI broth microdilution method; type: functional; conditions: ATCC 51299, 18 h
Escherichia coli [23] = assay: Antibacterial activity against extended-spectrum beta-lactamase deficient Escherichia coli 12-14 after 18 hrs by CLSI broth microdilution method; type: functional; conditions: 12-14, 18 h
Klebsiella pneumoniae [24] = assay: Antibacterial activity against extended-spectrum beta-lactamase harboring Klebsiella pneumoniae ATCC 700603 after 18 hrs by CLSI broth microdilution method; type: functional; conditions: Klebsiella pneumoniae, 700603, 18 h
[25] = tested on: Staphylococcus epidermidis; assay: Antibacterial activity against methicillin-sensitive Staphylococcus epidermidis 12-6 after 18 hrs by CLSI broth microdilution method; type: functional; conditions: 12-6, 18 h
Enterococcus faecium [26] = assay: Antibacterial activity against vancomycin-sensitive Enterococcus faecium 12-3 after 18 hrs by CLSI broth microdilution method; type: functional; conditions: 12-3, 18 h
Citrobacter freundii = assay: Antibacterial activity against Citrobacter freundii ATCC 43864 after 18 hrs by CLSI broth microdilution method; type: functional; conditions: ATCC 43864, 18 h
Staphylococcus aureus [27] = assay: Antibacterial activity against methicillin-resistant Staphylococcus aureus ATCC 33591 after 18 hrs by CLSI broth microdilution method; type: functional; conditions: ATCC 33591, 18 h
Staphylococcus aureus [28] = assay: Antibacterial activity against methicillin-resistant Staphylococcus aureus 12-33 after 18 hrs by CLSI broth microdilution method; type: functional; conditions: 12-33, 18 h
Pseudomonas aeruginosa [29] = assay: Antibacterial activity against Pseudomonas aeruginosa ATCC 27853 after 18 hrs by CLSI broth microdilution method; type: functional; conditions: ATCC 27853, 18 h
Enterococcus faecium [30] = assay: Antibacterial activity against vancomycin-resistant Enterococcus faecium 12-1 after 18 hrs by CLSI broth microdilution method; type: functional; conditions: 12-1, 18 h

Structure (SMILES) | MIC (Klebsiella pneumoniae [1]) [µg/mL] | MIC (Klebsiella pneumoniae [2]) [µg/mL] | MIC (Serratia marcescens) [µg/mL] | MIC (Escherichia coli [3]) [µg/mL] | MIC (Staphylococcus aureus [4]) [µg/mL] | MIC (Enterococcus faecium [5]) [µg/mL] | MIC (Pseudomonas aeruginosa [6]) [µg/mL] | MIC (Proteus mirabilis) [µg/mL] | MIC (Enterobacter cloacae) [µg/mL] | MIC [7] [µg/mL] | MIC (Enterococcus faecalis [8]) [µg/mL] | CC50 at 48 h [9] [µg/mL] | MIC [10] [µg/mL] | MIC (Staphylococcus aureus [11]) [µg/mL] | MIC [12] [µg/mL] | MIC (Klebsiella pneumoniae [13]) [µg/mL] | MIC (Providencia rettgeri) [µg/mL] | MIC (Pseudomonas aeruginosa [14]) [µg/mL] | MIC (Escherichia coli [15]) [µg/mL] | MIC [16] [µg/mL] | other results
N=C(c1ccc2cc(-c3ccc(-c4cc5ccc(C(=N)N6CC=CCC6)cc5[nH]4)cc3)[nH]c2c1)N1CC=CCC1 | 16 (≈ 30.5 µM) | 16 (≈ 30.5 µM) | 64 (≈ 122 µM) | 8 (≈ 15.2 µM) | 2 (≈ 3.81 µM) | 4 (≈ 7.62 µM) | > 128 | 32 (≈ 61 µM) | 8 (≈ 15.2 µM) | 16 (≈ 30.5 µM) | 4 (≈ 7.62 µM) | 13.3 (≈ 25.4 µM) | 1 (≈ 1.91 µM) | 2 (≈ 3.81 µM) | 2 (≈ 3.81 µM) | 8 (≈ 15.2 µM) | 8 (≈ 15.2 µM) | > 128 | 8 (≈ 15.2 µM) | 16 (≈ 30.5 µM) | MIC (Escherichia coli [17]): 8 µg/mL (≈ 15.2 µM); MIC (Klebsiella aerogenes): 8 µg/mL (≈ 15.2 µM); MIC (Proteus vulgaris): 16 µg/mL (≈ 30.5 µM); MIC (Enterococcus faecalis [18]): 4 µg/mL (≈ 7.62 µM); MIC (Staphylococcus aureus [19]): 2 µg/mL (≈ 3.81 µM); MIC (Enterococcus faecalis [20]): 8 µg/mL (≈ 15.2 µM); MIC (Klebsiella pneumoniae [21]): 16 µg/mL (≈ 30.5 µM); MIC (Enterococcus faecalis [22]): 8 µg/mL (≈ 15.2 µM); MIC (Escherichia coli [23]): 8 µg/mL (≈ 15.2 µM); MIC (Klebsiella pneumoniae [24]): 32 µg/mL (≈ 61 µM); MIC [25]: 4 µg/mL (≈ 7.62 µM); MIC (Enterococcus faecium [26]): 4 µg/mL (≈ 7.62 µM); MIC (Citrobacter freundii): 8 µg/mL (≈ 15.2 µM); MIC (Staphylococcus aureus [27]): 1 µg/mL (≈ 1.91 µM); MIC (Staphylococcus aureus [28]): 2 µg/mL (≈ 3.81 µM); MIC (Pseudomonas aeruginosa [29]): > 128 µg/mL; MIC (Enterococcus faecium [30]): 4 µg/mL (≈ 7.62 µM)
CN(C)C(=N)c1ccc2cc(-c3cnc(-c4cc5ccc(C(=N)N(C)C)cc5[nH]4)s3)[nH]c2c1 | 4 (≈ 8.78 µM) | 4 (≈ 8.78 µM) | 8 (≈ 17.6 µM) | 2 (≈ 4.39 µM) | 0.25 (≈ 0.549 µM) | 1 (≈ 2.19 µM) | > 64 | 8 (≈ 17.6 µM) | 2 (≈ 4.39 µM) | 16 (≈ 35.1 µM) | 1 (≈ 2.19 µM) | 2.01 (≈ 4.41 µM) | 0.12 (≈ 0.263 µM) | 0.5 (≈ 1.1 µM) | 0.25 (≈ 0.549 µM) | 4 (≈ 8.78 µM) | 2 (≈ 4.39 µM) | > 64 | 2 (≈ 4.39 µM) | 16 (≈ 35.1 µM) | MIC (Escherichia coli [17]): 2 µg/mL (≈ 4.39 µM); MIC (Klebsiella aerogenes): 4 µg/mL (≈ 8.78 µM); MIC (Proteus vulgaris): 4 µg/mL (≈ 8.78 µM); MIC (Enterococcus faecalis [18]): 0.5 µg/mL (≈ 1.1 µM); MIC (Staphylococcus aureus [19]): 0.25 µg/mL (≈ 0.549 µM); MIC (Enterococcus faecalis [20]): 2 µg/mL (≈ 4.39 µM); MIC (Klebsiella pneumoniae [21]): 4 µg/mL (≈ 8.78 µM); MIC (Enterococcus faecalis [22]): 1 µg/mL (≈ 2.19 µM); MIC (Escherichia coli [23]): 2 µg/mL (≈ 4.39 µM); MIC (Klebsiella pneumoniae [24]): 8 µg/mL (≈ 17.6 µM); MIC [25]: 0.125 µg/mL (≈ 0.274 µM); MIC (Enterococcus faecium [26]): 2 µg/mL (≈ 4.39 µM); MIC (Citrobacter freundii): 4 µg/mL (≈ 8.78 µM); MIC (Staphylococcus aureus [27]): 0.25 µg/mL (≈ 0.549 µM); MIC (Staphylococcus aureus [28]): 1 µg/mL (≈ 2.19 µM); MIC (Pseudomonas aeruginosa [29]): 16 µg/mL (≈ 35.1 µM); MIC (Enterococcus faecium [30]): 1 µg/mL (≈ 2.19 µM)
N=C(c1ccc2cc(-c3ccc(-c4cc5ccc(C(=N)N6CCC6)cc5[nH]4)cc3)[nH]c2c1)N1CCC1 | 32 (≈ 67.7 µM) | 16 (≈ 33.9 µM) | 32 (≈ 67.7 µM) | 2 (≈ 4.23 µM) | 2 (≈ 4.23 µM) | 1 (≈ 2.12 µM) | 128 (≈ 271 µM) | 16 (≈ 33.9 µM) | 8 (≈ 16.9 µM) | 8 (≈ 16.9 µM) | 4 (≈ 8.46 µM) | 2.84 (≈ 6.01 µM) | 0.125 (≈ 0.264 µM) | 2 (≈ 4.23 µM) | 0.125 (≈ 0.264 µM) | 16 (≈ 33.9 µM) | 8 (≈ 16.9 µM) | 128 (≈ 271 µM) | 1 (≈ 2.12 µM) | 32 (≈ 67.7 µM) | MIC (Escherichia coli [17]): 2 µg/mL (≈ 4.23 µM); MIC (Klebsiella aerogenes): 4 µg/mL (≈ 8.46 µM); MIC (Proteus vulgaris): 32 µg/mL (≈ 67.7 µM); MIC (Enterococcus faecalis [18]): 1 µg/mL (≈ 2.12 µM); MIC (Staphylococcus aureus [19]): 2 µg/mL (≈ 4.23 µM); MIC (Enterococcus faecalis [20]): 4 µg/mL (≈ 8.46 µM); MIC (Klebsiella pneumoniae [21]): 8 µg/mL (≈ 16.9 µM); MIC (Enterococcus faecalis [22]): 2 µg/mL (≈ 4.23 µM); MIC (Escherichia coli [23]): 2 µg/mL (≈ 4.23 µM); MIC (Klebsiella pneumoniae [24]): 32 µg/mL (≈ 67.7 µM); MIC [25]: 0.125 µg/mL (≈ 0.264 µM); MIC (Enterococcus faecium [26]): 2 µg/mL (≈ 4.23 µM); MIC (Citrobacter freundii): 4 µg/mL (≈ 8.46 µM); MIC (Staphylococcus aureus [27]): 1 µg/mL (≈ 2.12 µM); MIC (Staphylococcus aureus [28]): 4 µg/mL (≈ 8.46 µM); MIC (Pseudomonas aeruginosa [29]): 64 µg/mL (≈ 135 µM); MIC (Enterococcus faecium [30]): 1 µg/mL (≈ 2.12 µM)
